In paper PMC6522981, “Structure-based design generated novel hydroxamic acid based preferential HDAC6 lead inhibitor with on-target cytotoxic activity against primary choroid plexus carcinoma” (Journal of Enzyme Inhibition and Medicinal Chemistry, 2019):

Columns and labels:
[1] = tested on: acetylated α-tubulin in HL60 cells; assay: Western blot analysis of acetylated α-tubulin in HL60 cells; format: cell-based; details: 24 h
Procedure: CCHE-45 cells were treated with 100 µM of test compound for 24 h. HL60 cell line (a kind gift from Professor Azza Kamel from the National Cancer Institute, Cairo University); and is cultured in RPMI-1640 (Lonza, BE-12-702F) supplemented with 10% Fetal Bovine Serum (FBS, Gibco, 12483–020) and 100 U/ml penicillin and 100 µg/ml streptomycin (Lonza, DE17-602F), has also been treated with different concentrations of 10a in twofold serial dilutions for 24 h. Proteins were extracted from CCHE-45 cells using RIPA Lysis and Extraction Buffer (ThermoScientific, cat. No: 89901) containing 100x Halt Protease and […] Inhibitor Cocktail (ThermoScientific, cat. No. 78444). Followed by protein quantification using Bradford Reagent (Pierce Coomassie Plus (Bradford) Assay Reagent) (ThermoScientific, cat. No. 23238). A total of 50 µg proteins were loaded on a 10% SDS page using 30% Acrylamide/Bisacrylamide 19:1(Serva, cat. No. 10679.01) then transferred by semidry transfer method using Bio-Rad Trans-Blot Turbo transfer system on PVDF Transfer Membrane (ThermoScientific, cat. No. 88518). The membranes were incubated overnight at 4 °C in the primary antibodies Mouse monoclonal Anti-Beta Actin antibody (1:100, abcam, ab8224) and Mouse monoclonal Anti-acetylated α Tubulin (1:200, Santa Cruz Biotechnology, sc-23950). […]

[2] = molecular target: T1, human HDAC6 (Homo sapiens, UniProt Q9UBN7); assay: HDAC6 inhibitor enzymatic assay, % inhibition at fixed concentration; details: read-out: %inhibition of HDACs at 10µM of test compound HDAC6
T1 sequence (Q9UBN7 1-1215): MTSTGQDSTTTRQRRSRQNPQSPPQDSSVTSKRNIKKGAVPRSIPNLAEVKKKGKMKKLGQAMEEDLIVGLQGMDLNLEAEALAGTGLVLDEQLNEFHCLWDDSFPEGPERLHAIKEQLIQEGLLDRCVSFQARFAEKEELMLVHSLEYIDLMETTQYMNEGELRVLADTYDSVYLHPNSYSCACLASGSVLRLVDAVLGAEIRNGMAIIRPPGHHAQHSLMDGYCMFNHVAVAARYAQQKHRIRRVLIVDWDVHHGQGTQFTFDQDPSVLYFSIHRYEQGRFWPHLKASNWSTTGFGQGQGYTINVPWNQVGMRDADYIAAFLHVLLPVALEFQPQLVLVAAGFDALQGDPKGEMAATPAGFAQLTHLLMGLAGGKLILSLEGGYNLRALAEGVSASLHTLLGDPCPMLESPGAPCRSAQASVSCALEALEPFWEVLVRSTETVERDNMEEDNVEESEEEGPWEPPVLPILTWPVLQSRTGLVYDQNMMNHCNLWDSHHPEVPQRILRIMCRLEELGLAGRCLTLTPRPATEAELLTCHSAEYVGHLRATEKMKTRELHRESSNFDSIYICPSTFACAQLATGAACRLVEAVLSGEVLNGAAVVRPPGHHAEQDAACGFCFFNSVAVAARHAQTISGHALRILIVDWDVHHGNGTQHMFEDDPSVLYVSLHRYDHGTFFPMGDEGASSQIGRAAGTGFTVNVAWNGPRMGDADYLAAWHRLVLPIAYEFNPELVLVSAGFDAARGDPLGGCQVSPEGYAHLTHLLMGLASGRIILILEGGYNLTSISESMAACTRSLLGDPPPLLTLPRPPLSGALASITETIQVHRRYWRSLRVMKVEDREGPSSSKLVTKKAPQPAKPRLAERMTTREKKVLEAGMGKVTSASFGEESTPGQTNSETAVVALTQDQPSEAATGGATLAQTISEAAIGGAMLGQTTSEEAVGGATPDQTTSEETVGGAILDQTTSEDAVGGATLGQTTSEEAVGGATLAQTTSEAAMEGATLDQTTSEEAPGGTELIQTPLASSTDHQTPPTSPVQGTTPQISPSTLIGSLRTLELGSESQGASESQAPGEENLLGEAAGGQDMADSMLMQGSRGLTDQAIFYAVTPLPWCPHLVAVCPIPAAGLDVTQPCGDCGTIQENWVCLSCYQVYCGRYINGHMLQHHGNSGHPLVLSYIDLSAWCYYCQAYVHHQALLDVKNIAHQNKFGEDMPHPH

In the case of `O=C(CCCSc1nc2ccccc2n1Cc1ccccc1)NO` [Compound 10a, 4-((1-benzyl-1H-benzo[d]imidazol-2-yl)thio)-N-hydroxybutanamide], the “concentration with significant upregulation of acetylated α-tubulin” value ([1]; 6.25-100 µM tested) is reported as 25 µM, the “concentration from which acetylated α-tubulin is upregulated” value ([1]; Figure 6 legend) is reported as no less than 12.5 µM and the inhibition at 10 µM [2] is reported as 92%.
